Laboratory results taken from patent US8192962B2, “Processes for detecting toxic substances” (Daikin Industries, Ltd., priority 2001, dated 2012).

Tested on: Genes belonging to other category
Experiment: DNA chip mRNA expression in yeast, genes belonging to other category (Table 9)
Type: cell-based, Saccharomyces cerevisiae S288C
Procedure, shortened: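 Chemical exposure: 2 h, log-phase S. cerevisiae S288C, YPD, 25° C., dose set to inhibit growth without death. Profiling: mRNA labeled by reverse transcription with Cy3- or Cy5-dUTP, hybridized to whole-genome array. Output: fluorescence ratio against untreated culture.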

Structure (SMILES): CCCCCCCCCCCCc1ccc(S(=O)(=O)[O-])cc1.[Na+] [(17), sodium dodecylbenzosulfonate]
- The level of expressed mRNA in the presence of chemical substance/The level of expressed mRNA in the absence of chemical substance (yeast gene YAR010C): 1.5
- The level of expressed mRNA in the presence of chemical substance/The level of expressed mRNA in the absence of chemical substance (yeast gene YBL005W-A): 1.3
- The level of expressed mRNA in the presence of chemical substance/The level of expressed mRNA in the absence of chemical substance (yeast gene YBL041W): 1.3
- The level of expressed mRNA in the presence of chemical substance/The level of expressed mRNA in the absence of chemical substance (yeast gene YBL043W): 2.3
- The level of expressed mRNA in the presence of chemical substance/The level of expressed mRNA in the absence of chemical substance (yeast gene YBL078C): 1.8
- The level of expressed mRNA in the presence of chemical substance/The level of expressed mRNA in the absence of chemical substance (yeast gene YBR214W): 1.1
- The level of expressed mRNA in the presence of chemical substance/The level of expressed mRNA in the absence of chemical substance (yeast gene YCL020W): 0.9
- The level of expressed mRNA in the presence of chemical substance/The level of expressed mRNA in the absence of chemical substance (yeast gene YCL027W): 0.7
- The level of expressed mRNA in the presence of chemical substance/The level of expressed mRNA in the absence of chemical substance (yeast gene YCR004C): 1.4
- The level of expressed mRNA in the presence of chemical substance/The level of expressed mRNA in the absence of chemical substance (yeast gene YCR071C): 1.2
- The level of expressed mRNA in the presence of chemical substance/The level of expressed mRNA in the absence of chemical substance (yeast gene YCR088W): 1.4
- The level of expressed mRNA in the presence of chemical substance/The level of expressed mRNA in the absence of chemical substance (yeast gene YDL008W): 1.5
- The level of expressed mRNA in the presence of chemical substance/The level of expressed mRNA in the absence of chemical substance (yeast gene YDL238C): 1.1
- The level of expressed mRNA in the presence of chemical substance/The level of expressed mRNA in the absence of chemical substance (yeast gene YDR055W): 2.0
- The level of expressed mRNA in the presence of chemical substance/The level of expressed mRNA in the absence of chemical substance (yeast gene YDR084C): 2.0
- The level of expressed mRNA in the presence of chemical substance/The level of expressed mRNA in the absence of chemical substance (yeast gene YDR085C): 1.3
- The level of expressed mRNA in the presence of chemical substance/The level of expressed mRNA in the absence of chemical substance (yeast gene YDR104C): 0.9
- The level of expressed mRNA in the presence of chemical substance/The level of expressed mRNA in the absence of chemical substance (yeast gene YDR115W): 1.2
- The level of expressed mRNA in the presence of chemical substance/The level of expressed mRNA in the absence of chemical substance (yeast gene YDR259C): 1.0
- The level of expressed mRNA in the presence of chemical substance/The level of expressed mRNA in the absence of chemical substance (yeast gene YDR315C): 1.2
- The level of expressed mRNA in the presence of chemical substance/The level of expressed mRNA in the absence of chemical substance (yeast gene YDR358W): 1.9
- The level of expressed mRNA in the presence of chemical substance/The level of expressed mRNA in the absence of chemical substance (yeast gene YDR388W): 1.2
- The level of expressed mRNA in the presence of chemical substance/The level of expressed mRNA in the absence of chemical substance (yeast gene YDR432W): 0.7
- The level of expressed mRNA in the presence of chemical substance/The level of expressed mRNA in the absence of chemical substance (yeast gene YDR481C): 1.2
- The level of expressed mRNA in the presence of chemical substance/The level of expressed mRNA in the absence of chemical substance (yeast gene YDR510W): 1.1
- The level of expressed mRNA in the presence of chemical substance/The level of expressed mRNA in the absence of chemical substance (yeast gene YEL042W): 0.7
- The level of expressed mRNA in the presence of chemical substance/The level of expressed mRNA in the absence of chemical substance (yeast gene YEL066W): 1.0
- The level of expressed mRNA in the presence of chemical substance/The level of expressed mRNA in the absence of chemical substance (yeast gene YER039C): 1.7
- The level of expressed mRNA in the presence of chemical substance/The level of expressed mRNA in the absence of chemical substance (yeast gene YER107C): 1.1
- The level of expressed mRNA in the presence of chemical substance/The level of expressed mRNA in the absence of chemical substance (yeast gene YER130C): 3.0
- The level of expressed mRNA in the presence of chemical substance/The level of expressed mRNA in the absence of chemical substance (yeast gene YFL022C): 0.9
- The level of expressed mRNA in the presence of chemical substance/The level of expressed mRNA in the absence of chemical substance (yeast gene YFL028C): 1.2
- The level of expressed mRNA in the presence of chemical substance/The level of expressed mRNA in the absence of chemical substance (yeast gene YFL043C): 1.5
- The level of expressed mRNA in the presence of chemical substance/The level of expressed mRNA in the absence of chemical substance (yeast gene YGL158W): 0.8
- The level of expressed mRNA in the presence of chemical substance/The level of expressed mRNA in the absence of chemical substance (yeast gene YGL229C): 1.1
- The level of expressed mRNA in the presence of chemical substance/The level of expressed mRNA in the absence of chemical substance (yeast gene YGR136W): 1.3
- The level of expressed mRNA in the presence of chemical substance/The level of expressed mRNA in the absence of chemical substance (yeast gene YGR189C): 2.3
- The level of expressed mRNA in the presence of chemical substance/The level of expressed mRNA in the absence of chemical substance (yeast gene YGR213C): 12.8
- The level of expressed mRNA in the presence of chemical substance/The level of expressed mRNA in the absence of chemical substance (yeast gene YGR257C): 1.1
- The level of expressed mRNA in the presence of chemical substance/The level of expressed mRNA in the absence of chemical substance (yeast gene YHR004C): 1.4
- The level of expressed mRNA in the presence of chemical substance/The level of expressed mRNA in the absence of chemical substance (yeast gene YHR071W): 2.6
- The level of expressed mRNA in the presence of chemical substance/The level of expressed mRNA in the absence of chemical substance (yeast gene YHR139C): 1.4
- The level of expressed mRNA in the presence of chemical substance/The level of expressed mRNA in the absence of chemical substance (yeast gene YHR142W): 1.3
- The level of expressed mRNA in the presence of chemical substance/The level of expressed mRNA in the absence of chemical substance (yeast gene YIL123W): 1.3
- The level of expressed mRNA in the presence of chemical substance/The level of expressed mRNA in the absence of chemical substance (yeast gene YIL140W): 0.7
- The level of expressed mRNA in the presence of chemical substance/The level of expressed mRNA in the absence of chemical substance (yeast gene YJL073W): 1.1
- The level of expressed mRNA in the presence of chemical substance/The level of expressed mRNA in the absence of chemical substance (yeast gene YJL089W): 1.2
- The level of expressed mRNA in the presence of chemical substance/The level of expressed mRNA in the absence of chemical substance (yeast gene YJL116C): 1.2
- The level of expressed mRNA in the presence of chemical substance/The level of expressed mRNA in the absence of chemical substance (yeast gene YJR004C): 0.4
- The level of expressed mRNA in the presence of chemical substance/The level of expressed mRNA in the absence of chemical substance (yeast gene YJR086W): 1.4
